# Source: publication PMC2652713, “Molecular Blocking of CD23 Supports Its Role in the Pathogenesis of Arthritis” (PLoS ONE, 2009)
# How the values were obtained:
# [1] = tested on: CD23; experiment: CD23 western blot on CD23+ B-cell line extract; format: binding, human; details: CD23+ B cell line extract (50 µg protein), blot pre-incubated with p30A 10 µg/ml (methods: 10, 20 and 40 µg/ml, 2 h)
# Protocol: Figure 1 Specific blockade of CD23 reactivity by p30A. Flow cytometry analysis showing the inhibition of (A) anti-CD23-FITC (20 µg/ml) or (B) IgE (10 µg/ml)/anti-IgE-FITC (1 µg/ml) binding to CD23^+ human PBL-derived macrophages (red lines) or following their pre-incubation with p30A peptides (10 µg/ml) (blue lines). (C) CD23 western blot was performed on total protein extract from à CD23^+ B-cell line. The detection with CD23-McAb followed the pre-incubation of the blot with or without p30A (10 µg/ml). Similar protein quantity (50 µg) was used for each western blot condition.
# Total cellular proteins were isolated from CD23^+, ADAM B-cell line in cell lysis buffer (10 mM Tris pH 8.0, 150 mM NaCl, 5 mM EDTA, 1% Triton X-100, 0.05% SDS, 10 mM Sodium Fluoride, 1 mM Sodium Orthovanadate, 5 µM Molibdic Acid) and a mixture of protease inhibitors (all from Sigma Aldrich, Saint Quentin Fallavier, France). Protein concentration was determined using the Bradford assay (Bio Rad, Hemel Hempstead, UK). Protein samples (50 µg total protein) were subjected to SDS-PAGE using a 12% resolving gel. […] Immunoreactive bands (CD23 and Bcl2) were detected using the FluorChem 8800 (Alpha Innotech, San Leandro, USA) and semi-quantified by densitometry using AlphaEase FC (Alpha Innotech).
# [2] = tested on: human CD23+ macrophages; experiment: Cell mortality and apoptosis with p30A versus medium alone; format: cell-based
# [3] = tested on: human CD23+ monocyte-derived macrophages; experiment: Inflammatory gene transcription array in CD23-activated macrophages of healthy donors; format: cell-based
# Protocol: Figure 3 Inhibition of inflammatory gene transcription by p30A in CD23-stimulated macrophages. Human CD23^+ monocyte-derived macrophages were incubated with cross-linking CD23-McAb (20 µg/ml) alone or following 1 h pre-incubation with 10 µg/ml of p30A. Controls, activated cells with/without p30A pre-incubation are figured. IL-1β, TNF-α and actin (ACT) mRNA location are indicated by arrows. Shown is one representative experiment out of three. TEXT PRINTED IN THE PICTURE: p30A: Expressed Genes: 28 / 114 (Activated + p30A)
# Monocytes or macrophages were activated through CD23 pathway: while monocytes/macrophages from RA patients express CD23, monocytes from healthy donors must be pre-activated to express surface CD23 as described. This pre-activation was obtained by incubation of healthy monocytes with recombinant human IL-4 (20 ng/ml) during 48 h at 37°C; After washing, all cell populations were tested by flow cytometry for their surface CD23 expression (>80% CD23^+) and then incubated in the presence of cross-linking CD23-MAb (clones 135 or DM2, IgG1k, 20 µg/ml) during 48–72 h, or IgE and anti-IgE as described, [17]. When indicated, peptides were added to the cells 2 h prior to their activation. Cells supernatants were then analyzed for their nitric oxide content (see below) and for the presence of cytokines: levels of TNF-α and IL-6 were determined in duplicates for each sample by a specific ELISA (R&D, Paris, France) while levels of IL-1β, IL-8 and IL-10 was determined using FlowCytomix Human Th1/Th2 Kit as recommended (Bender Medsystems, Vienna, Austria).
# Following cultures, total RNA was extracted using RNeasy kit (Qiagen, Hilden, Germany). Synthesis, purification and hybridization of biotin-labeled cRNA (6 µg) to custom array membranes were performed according to manufacturer's recommendations (Oligo GEArray® Human Inflammatory Cytokines and Receptors Microarray, ref OHS-011, Superarray Bioscience, Frederick, MD). After local background subtraction, average signal intensity from duplicate spots was compared to values obtained for housekeeping genes using AlphaImager HP automatic image capture software (Alpha-Innotec, San Leandro, CA). For each gene, modulation was defined as the relative expression value for stimulated vs. control sample.
# [4] = Weight and intestinal bleeding in AIA rats; format: in vivo, rat, Female Lewis; details: 50 days, data not shown
# Protocol: Adjuvant arthritis was induced in six week-old animals by subcutaneous injection at the base of the tail of 300 µl containing 1.8 mg of inactivated Mycobacterium butyricum (Difco Laboratories, Detroit, MI) diluted in emulsion of 8 ml Vaseline, 1 ml polysorbate 80, and 1 ml PBS (Phosphate Buffer Saline, Eurobio). Rats were boosted one week later following the same procedure. Observation was conducted for up to 50 days following immunization for clinical signs of arthritis. Rats were divided in different groups of 8 rats. Groups were treated with five injections (every 2 days) of either p30A (10, 50 or 100 mg in a PBS solution), pCtl, hydrocortisone (Sigma Aldrich) or PBS solution. Injections were initiated two days after the appearance of first arthritic symptoms (therapeutic) or on the first day of immunization (preventive). […] The severity of AIA in each paw was quantified daily using an ordinal clinical score measurement from 0 to 4 as follows: no signs of inflammation ( = 0); swelling alone (>2 fold paw diameter) ( = 1) or swelling/immobility ( = 2) of one paw; swelling ( = 3) or swelling/immobility ( = 4) of two paws. Weight evolution of rats was measured daily. […] Quantification of TNF-α and IL-1β in rat cell supernatants was performed using appropriate ELISA kits and according to manufacturer's recommendations (Biosource, Montrouge, France).
substance,measurement,setting,value
FHENWPS [p30A],block of detection of CD23 protein by CD23-McAb,[1],block
same,cell mortality and apoptosis,"[2]; in the presence of p30A compared to cells in medium alone, no significant variations",< 5%
same,cell toxicity,[2]; monocytes/macrophages,without cell toxicity
same,inhibition of expression of inflammatory mRNAs,[3]; CD23-activated macrophages of healthy donors,inhibits the expression of most of the above mRNAs
same,expressed mRNAs: Chemokine Receptors,[3]; activated cells + p30A,"CCR1, CCR5, CCR7, CXCR4"
same,expressed mRNAs: Chemokines Other subfamily members,[3]; activated cells + p30A,"BCL6, BLR1, C3"
same,expressed mRNAs: Chemokines Subfamily A (Cys-Cys),[3]; activated cells + p30A,"CCL15, CCL17, CCL18, CCL19, CCL3, CCL4, CCL5"
same,expressed mRNAs: Interleukins and their Receptors,[3]; activated cells + p30A,"IL10RA, IL10RB, IL11RA, IL17R, IL1R1, IL1R2, IL2RA, IL2RG, IL6R"
same,expressed mRNAs: Other related genes,[3]; activated cells + p30A,"LTB4R, MIF"
same,expressed mRNAs: TNF Ligands and Receptors,[3]; activated cells + p30A,"LTA (LT- α), LTB (LT-β), TNFRSF1B (TNFR2)"
same,number of expressed genes detected/114,"[3]; activated cells + p30A (10 µg/ml, 1 h pre-incubation; CD23-McAb 20 µg/ml), comparators: non activated cells 14, activated cells 53",28
same,intestinal bleeding,[4],neither intestinal bleeding was observed
same,weight loss,[4],no weight loss
